Assays:
B16 melanoma 4A5 cell = experiment: Melanin production suppressing evaluation test (theophylline-induced melanine production); format: cell-based, mouse; details: sample at a concentration of 100 μl or less; 0.2 mM theophylline; culturing 3 days
Procedure: As a test for a whitening effect, evaluation of the action of B16 melanoma 4A5 cell on theophylline-induced melanine production was carried out on a glyceryl ascorbic acid acylated derivative of the present invention, according to the following procedure. The same evaluations were carried out also on arbutin, ascorbic acid, sodium ascorbate, magnesium ascorbyl phosphate, glucosyl ascorbic acid, and 3-O-glyceryl ascorbic acid and 2-O-glyceryl ascorbic acid obtained in the Synthesis Examples mentioned above, as comparison.
(1) B16 mouse melanoma 4A5 strain was sowed onto a 48-well plate at a cell density of 2.0×10^4 cells/well. (2) Culturing was performed for 24 hours with Dulbecco's Modified Eagle's medium (manufactured by SIGMA. Hereinafter, abbreviated as D-MEM) containing 10% fetal bovine serum (manufactured by Roshe Diagnostics). Then, it was changed to 0.2 mM theophylline and a 10% fetal bovine serum-containing D-MEM which contains a sample of given concentration. (3) After culturing for 3 days in the co-existence of a sample, the medium was removed using an aspirator. Then, after distilled water was added, cells were broken by an ultrasonic wave. (4) Thereafter, the amount of protein was determined using BCA protein assay kit (manufactured by PIERCE), and the produced amount of melanine was measured by an alkali solubilizing method described later. To the cell-destructed solution was added sodium hydroxide so as to give a final concentration of 2 mol/L and the mixture was dissolved by heating (60° C., 15 minutes), then, the absorbance at 450 nm was measured using a micro plate reader. The melanine amount was calculated from a calibration curve made using synthetic melanine (SIGMA) as a standard. The melanine amount per unit protein was calculated by dividing the melanine amount by the protein amount. (5) The melanine production suppressing rate was calculated according to the following formula.
Melanine production suppressing rate(%)=[1−(A−B)/(C−B)]×100
[wherein, A represents the melanine amount per unit protein (g/g) in adding a sample, B represents the melanine amount per unit protein (g/g) in the normal group, and C represents the melanine amount per unit protein (g/g) in the control group.]
The normal group means the case where neither theophylline nor sample was added.(that is; theophylline(−) and sample(−))
The control group means the case where neither sample was not added but theophylline was added.(that is; theophylline (+) and sample(−))
In the following Tables, the melanine production suppressing rate in applying a sample at a concentration of […] or less is expressed as described below.

[1] = tested on: Normal human dermal fibroblasts; experiment: Collagen production evaluation test (Sircol collagen assay); format: cell-based; details: sample 100 μM, cultured 48 hours; for activity at 100 µM: Homo sapiens, Fibroblast, read-out: Collagen production promoting effect (collagen production amount, control group is 100%)
Procedure: The collagen production promoting effects of the glyceryl ascorbic acid acylated derivatives of the present invention were evaluated, according to the following procedure. As comparison, arbutin, ascorbic acid, sodium ascorbate, magnesium ascorbyl phosphate, glucosyl ascorbic acid, 3-O-glyceryl ascorbic acid and 2-O-glyceryl ascorbic acid were used like in Test Example 1.
Normal human dermal fibroblasts were regulated with a 10% (v/v) fetal bovine serum (manufactured by Invitrogen)-containing D-MEM so as to give a cell density of 2.5×10^4 cells/well, then, pre-incubation for 24 hours was performed on a 96-well plate. After the medium was removed, a sample regulated with a 5% (v/v) fetal bovine serum-containing D-MEM to a concentration of 100 μM was added to each well, then, cultured for 48 hours at 37° C. and 5% CO2. After completion of culturing, the amount of free collagen was measured using Sircol collagen assay kit (manufactured by Biocolor).
The collagen production amount in applying a sample at a concentration of 100 μM is obtained as % value when the control group is 100%, and the results are shown in Table 4 based on the following standard.

[2] = Stability test: odor and color change of 2% aqueous solution stored at 50° C.; format: physicochemical; details: pH7, ten panelists
Procedure: Using 2-O-glyceryl-6-O-octanoyl ascorbic acid obtained in Example 2 and 2-O-glyceryl-6-O-octadecanoyl ascorbic acid obtained in Example 9, an evaluation was made on the stability of odor and color change when stored at 50° C. for 4 weeks, according to the following procedure. For comparison, magnesium ascorbyl phosphate, ascorbic acid and 3-O-glyceryl ascorbic acid were used.
Aqueous solutions (2%) of various test samples were adjusted to pH7 with a dilute sodium hydroxide aqueous solution or a dilute hydrochloric acid aqueous solution, and charged into 50 mL screw tubes. The tubes were sealed and stored at 50° C. for 4 weeks. The odor and degree of color change immediately after preparation, after storage for two weeks and after storage for four weeks were evaluated by ten panelists based on the following methods and according to the following criterion.
3: almost no change as compared with that immediately after preparation
2: color change is observed as compared with that immediately after preparation
1: intense color change is observed as compared with that immediately after preparation
Based on the evaluation results, classification was conducted as shown below.
◯: total point of 10 panelists is 25 or more
Δ: total point of 10 panelists is 16 to 24
x: total point of 10 panelists is 15 or less

[3] = In vivo moisturizing test (stratum corneum water content, forearm); details: 5 g in 100 mL water, pH 7, 0.3 mL on forearm, 10 subjects
Procedure: An in vitro moisturizing test and an in vivo moisturizing test of the glyceryl ascorbic acid acylated derivatives of Examples 1 to 6 were carried out according to the following manner. For comparison, sodium ascorbate, magnesium ascorbyl phosphate, glucosyl ascorbic acid, 3-O-glyceryl ascorbic acid, 2-O-glyceryl ascorbic acid and 3-O-cetyl ascorbic acid were used.
Each test sample (5 g) was dissolved in 100 mL of water, and pH thereof was adjusted to 7 with a dilute sodium hydroxide aqueous solution or a dilute hydrochloric acid aqueous solution to prepare a sample solution. A paper filter of 1 cm×1 cm was placed on a forearm portion and 0.3 mL of the prepared sample solution was applied on this, and covered and fixed by a polyamide film. Then, 3 hours and 8 hours after, the stratum corneum water content at the sample-applied portion was measured using CORNEOMETER CM825 (manufactured by Integral Corporation). The test was carried out with 10 subjects, and evaluated according to the following criterion (evaluation standard).
3: Stratum corneum water content increased by 15% or more, based on the water content before sample application
2: Stratum corneum water content increased by 0 to less than 15%, based on the water content before sample application
1: There was no change or there was a reduction in stratum corneum water content, before and after sample application.
Based on the evaluation results, classification was set as described below.
◯: Total points of 10 subjects is 25 or more
Δ: Total points of 10 subjects is 16 to 24
x: Total points of 10 subjects is 15 or less

[4] = storage period 0 (immediately after preparation)

Structure (SMILES) | Whitening effect (melanine production suppressing rate) (B16 melanoma 4A5 cell) | activity at 100 µM [1] | further results
OC[C@H]1O[C@@H](Oc2ccc(O)cc2)[C@H](O)[C@@H](O)[C@@H]1O [Arbutin, reference compound] | ⊚ (50% or more) | < 100% | 
O=C1O[C@H]([C@@H](O)CO)C(O)=C1O [Ascorbic acid] | Δ (Less than 30%) | 100 to 200% | Odor ([2]; storage 2 weeks at 50° C.): Δ (total point of 10 panelists is 16 to 24); Color change [2, 4]: ◯ (total point of 10 panelists is 25 or more); Odor [2, 4]: ◯ (total point of 10 panelists is 25 or more)
CCCC(=O)OC[C@H](O)[C@H]1OC(=O)C(OCC(O)CO)=C1O (some centres unmarked) [Example 1, 2-O-glyceryl-6-O-butanoyl ascorbic acid] | ◯ (30 to 49%) | 100 to 200% | in vivo moisturizing (stratum corneum water content) after 3 hours ([3]; 3 hours): ◯ (Total points of 10 subjects is 25 or more); in vivo moisturizing (stratum corneum water content) after 8 hours ([3]; 8 hours): ◯ (Total points of 10 subjects is 25 or more)
CCCCCCCCCCCCCC(=O)OC[C@H](O)[C@H]1OC(=O)C(OCC(O)CO)=C1O (some centres unmarked) [Example 7, 2-O-glyceryl-6-O-tetradecanoyl ascorbic acid] | ⊚ (50% or more) |  | 
CCCCCCCCCCCCCCCCCC(=O)OC[C@H](O)[C@H]1OC(=O)C(OCC(O)CO)=C1O (some centres unmarked) [Example 9, 2-O-glyceryl-6-O-octadecanoyl ascorbic acid] | ⊚ (50% or more) |  | Color change ([2]; storage 2 weeks at 50° C.): ◯ (total point of 10 panelists is 25 or more); Odor ([2]; storage 2 weeks at 50° C.): ◯ (total point of 10 panelists is 25 or more); Color change ([2]; storage 4 weeks at 50° C.): ◯ (total point of 10 panelists is 25 or more); Odor ([2]; storage 4 weeks at 50° C.): ◯ (total point of 10 panelists is 25 or more); Color change [2, 4]: ◯ (total point of 10 panelists is 25 or more); Odor [2, 4]: ◯ (total point of 10 panelists is 25 or more)
CCCCCCCC/C=C\CCCCCCCC(=O)OC[C@H](O)[C@H]1OC(=O)C(OCC(O)CO)=C1O (some centres unmarked) [Example 10, 2-O-glyceryl-6-O-oleoyl ascorbic acid] | ⊚ (50% or more) |  | 
CCCC(=O)OCC(O)COC1=C(O)[C@@H]([C@@H](O)COC(=O)CCC)OC1=O (some centres unmarked) [Example 11, 2-O-(3′-O-butanoylglyceryl)-6-O-butanoyl ascorbic acid] | ◯ (30 to 49%) |  | 
CCCC(=O)OCC(O)COC1=C(OC(=O)CCC)[C@@H]([C@@H](O)COC(=O)CCC)OC1=O (some centres unmarked) [Example 13, 2-O-(3′-O-butanoylglyceryl)-3,6-di-O-butanoyl ascorbic acid] | ⊚ (50% or more) | 100 to 200% | 
CCCCCCCC(=O)OCC(O)COC1=C(O)[C@@H]([C@@H](O)COC(=O)CCC)OC1=O (some centres unmarked) [Example 15, 2-O-(3′-O-octanoylglyceryl)-6-O-butanoyl ascorbic acid] |  | 100 to 200% | 
CCCCCCCCCCCCCCCC(=O)OCC(O)COC1=C(O)[C@@H]([C@@H](O)COC(=O)CCC)OC1=O (some centres unmarked) [Example 16, 2-O-(3′-O-hexadecanoylglyceryl)-6-O-butanoyl ascorbic acid] | ⊚ (50% or more) |  | 
CCCCCCCCCCCC(=O)OC[C@H](O)[C@H]1OC(=O)C(OCC(O)COC(=O)CCC)=C1O (some centres unmarked) [Example 17, 2-O-(3′-O-butanoylglyceryl)-6-O-dodecanoyl ascorbic acid] |  | 100 to 200% | 
CCCCCCCC(=O)OC1=C(OCC(O)CO)C(=O)O[C@@H]1[C@@H](O)CO (some centres unmarked) [Example 18, 2-O-glyceryl-3-O-octanoyl ascorbic acid] |  | 100 to 200% | 
CCCCCCCCCCCC(=O)OC1=C(OCC(O)CO)C(=O)OC1C(O)COC(=O)CCCCCCC (centres unmarked) [Example 19, 2-O-glyceryl-3-O-dodecanoyl-6-O-octanoy ascorbic acid] | ⊚ (50% or more) |  | 
CCCC(=O)OC[C@H](O)[C@H]1OC(=O)C(O)=C1OCC(O)CO (some centres unmarked) [Example 20, 3-O-glyceryl-6-O-butanoyl ascorbic acid] |  | 100 to 200% | 
CCCCCCCC(=O)OC[C@H](O)[C@H]1OC(=O)C(O)=C1OCC(O)CO (some centres unmarked) [Example 21, 3-O-glyceryl-6-O-octanoyl ascorbic acid] | ⊚ (50% or more) |  | 
CCCCCCCCCCCCCCCC(=O)OC[C@H](O)[C@H]1OC(=O)C(O)=C1OCC(O)CO (some centres unmarked) [Example 22, 3-O-glyceryl-6-O-hexadecanoyl ascorbic acid] |  | 100 to 200% | 
CCCCCCCCCCCC(=O)OCC(O)COC1=C(O)C(=O)O[C@@H]1[C@@H](O)COC(=O)CCC (some centres unmarked) [Example 23, 3-O-(3′-O-dodecanoylglyceryl)-6-O-butanoyl ascorbic acid] |  | 100 to 200% | 
O=C1O[C@H]([C@@H](O)CO)C([O-])=C1OP(=O)([O-])[O-].O=C1O[C@H]([C@@H](O)CO)C([O-])=C1OP(=O)([O-])[O-].[Mg+2].[Mg+2].[Mg+2] [Magnesium ascorbyl phosphate] | Δ (Less than 30%) |  | Collagen production promoting effect (collagen production amount, control group is 100%) [1]: + (100 to 200%); Color change ([2]; storage 2 weeks at 50° C.): Δ (total point of 10 panelists is 16 to 24); Odor ([2]; storage 2 weeks at 50° C.): ◯ (total point of 10 panelists is 25 or more); Odor ([2]; storage 4 weeks at 50° C.): ◯ (total point of 10 panelists is 25 or more); Color change [2, 4]: ◯ (total point of 10 panelists is 25 or more); Odor [2, 4]: ◯ (total point of 10 panelists is 25 or more)
O=C1O[C@H]([C@@H](O)CO)C([O-])=C1O.[Na+] [Sodium ascorbate, reference compound] | Δ (Less than 30%) | 100 to 200% | 

— US20130204017A1, “GLYCERYL ASCORBIC ACID ACYLATED DERIVATIVE OR ITS SALT, PRODUCTION METHOD THEREOF, AND COSMETICS” (SEIWA KASEI COMPANY, LIMITED, priority 2012, published 2013)
